# Results published in PubChem BioAssay AID2060499 (Molecular Pharmacology Branch, DTP, NCI, 2025).
# System: 777334-354-R2-J4-PDC tumor spheroids with HUVEC/MSC, viability
# Assay: Anticancer human tumor 777334-354-R2-J4-PDC patient-derived pancreatic adenocarcinoma cell line growth inhibition [GQUAD]
# Conditions: for IC50: curve of first compound; for viability, T/C: stronger effect = lower value
# Method in brief: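 Tumor cells were grown as complex spheroids with HUVEC endothelial cells and mesenchymal stem cells as stroma. G-quadruplex stabilizers were combined with targeted agents over half-log dilutions from near the clinical Cmax, or from 10 microM.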
# [1] = second compound 0.0316 µM, first compound 0.0316 µM
# [2] = second compound 0.0316 µM, first compound 0.1 µM
# [3] = second compound 0.0316 µM, first compound 0.316 µM
# [4] = second compound 0.0316 µM, first compound 1 µM
# [5] = second compound 0.0316 µM, first compound 3.16 µM
# [6] = second compound 0.0316 µM, first compound 10 µM
# [7] = second compound 0.1 µM, first compound 0.0316 µM
# [8] = second compound 0.1 µM, first compound 0.1 µM
# [9] = second compound 0.1 µM, first compound 0.316 µM
# [10] = second compound 0.1 µM, first compound 1 µM
# [11] = second compound 0.1 µM, first compound 3.16 µM
# [12] = second compound 0.1 µM, first compound 10 µM
# [13] = second compound 0.316 µM, first compound 0.0316 µM
# [14] = second compound 0.316 µM, first compound 0.1 µM
# [15] = second compound 0.316 µM, first compound 0.316 µM
# [16] = second compound 0.316 µM, first compound 1 µM
# [17] = second compound 0.316 µM, first compound 3.16 µM
# [18] = second compound 0.316 µM, first compound 10 µM
# [19] = second compound 1 µM, first compound 0.0316 µM
# [20] = second compound 1 µM, first compound 0.1 µM
# [21] = second compound 1 µM, first compound 0.316 µM
# [22] = second compound 1 µM, first compound 1 µM
# [23] = second compound 1 µM, first compound 3.16 µM
# [24] = second compound 1 µM, first compound 10 µM
# [25] = second compound 3.16 µM, first compound 0.0316 µM
# [26] = second compound 3.16 µM, first compound 0.1 µM
# [27] = second compound 3.16 µM, first compound 0.316 µM
# [28] = second compound 3.16 µM, first compound 1 µM
# [29] = second compound 3.16 µM, first compound 3.16 µM
# [30] = second compound 3.16 µM, first compound 10 µM
# [31] = second compound 10 µM, first compound 0.0316 µM
# [32] = second compound 10 µM, first compound 0.1 µM
# [33] = second compound 10 µM, first compound 0.316 µM
# [34] = second compound 10 µM, first compound 1 µM
# [35] = second compound 10 µM, first compound 3.16 µM
# [36] = second compound 10 µM, first compound 10 µM
# 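Also: spheroids exposed to compounds for 7 days before readout.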
smiles,measurement,setting,value
COc1cc(C2c3cc4c(cc3C(OC3OC5COC(C)OC5C(O)C3O)C3COC(=O)C23)OCO4)cc(OC)c1O (centres undefined) + CN(C)c1ccc(Nc2c3ccc(NC(=O)CCN4CCCC4)cc3nc3cc(NC(=O)CCN4CCCC4)ccc23)cc1,IC50,second compound 0.0316 µM,4.94 µM
same,IC50,second compound 0.1 µM,4.35 µM
same,IC50,second compound 0.316 µM,4.03 µM
same,IC50,second compound 1 µM,2.93 µM
same,IC50,second compound 3.16 µM,4.71 µM
same,IC50,second compound 10 µM,3.61 µM
same,"viability, T/C",[1],98.6%
same,"viability, T/C",[2],87.8%
same,"viability, T/C",[3],88.9%
same,"viability, T/C",[4],70.4%
same,"viability, T/C",[5],57.8%
same,"viability, T/C",[6],38.5%
same,"viability, T/C",[7],99.6%
same,"viability, T/C",[8],95.2%
same,"viability, T/C",[9],87.5%
same,"viability, T/C",[10],79%
same,"viability, T/C",[11],54%
same,"viability, T/C",[12],36%
same,"viability, T/C",[13],93.5%
same,"viability, T/C",[14],78.9%
same,"viability, T/C",[15],85.5%
same,"viability, T/C",[16],70.3%
same,"viability, T/C",[17],53.6%
same,"viability, T/C",[18],34.1%
same,"viability, T/C",[19],90.5%
same,"viability, T/C",[20],82%
same,"viability, T/C",[21],87.4%
same,"viability, T/C",[22],74.3%
same,"viability, T/C",[23],48.5%
same,"viability, T/C",[24],37.4%
same,"viability, T/C",[25],88%
same,"viability, T/C",[26],78.5%
same,"viability, T/C",[27],77.8%
same,"viability, T/C",[28],66.3%
same,"viability, T/C",[29],60.4%
same,"viability, T/C",[30],36.6%
same,"viability, T/C",[31],79%
same,"viability, T/C",[32],84.8%
same,"viability, T/C",[33],75.1%
same,"viability, T/C",[34],61%
same,"viability, T/C",[35],55%
same,"viability, T/C",[36],33.6%
Nc1ccn(C2OC(CO)C(O)C2(F)F)c(=O)n1 (centres undefined) + CN(C)c1ccc(Nc2c3ccc(NC(=O)CCN4CCCC4)cc3nc3cc(NC(=O)CCN4CCCC4)ccc23)cc1,IC50,second compound 0.0316 µM,0.557 µM
same,IC50,second compound 0.1 µM,0.402 µM
same,IC50,second compound 0.316 µM,0.326 µM
same,IC50,second compound 1 µM,0.171 µM
same,IC50,second compound 3.16 µM,0.15 µM
same,IC50,second compound 10 µM,0.0779 µM
same,"viability, T/C",[1],80.7%
same,"viability, T/C",[2],67.8%
same,"viability, T/C",[3],54.4%
same,"viability, T/C",[4],44.3%
same,"viability, T/C",[5],37.5%
same,"viability, T/C",[6],27.3%
same,"viability, T/C",[7],80.5%
same,"viability, T/C",[8],71.5%
same,"viability, T/C",[9],51.5%
same,"viability, T/C",[10],39.1%
same,"viability, T/C",[11],32.6%
same,"viability, T/C",[12],27.4%
same,"viability, T/C",[13],68.5%
same,"viability, T/C",[14],65.8%
same,"viability, T/C",[15],45.4%
same,"viability, T/C",[16],40.5%
same,"viability, T/C",[17],33.2%
same,"viability, T/C",[18],23.4%
same,"viability, T/C",[19],76.2%
same,"viability, T/C",[20],55.3%
same,"viability, T/C",[21],42.2%
same,"viability, T/C",[22],34.4%
same,"viability, T/C",[23],30.1%
same,"viability, T/C",[24],22.9%
same,"viability, T/C",[25],67.4%
same,"viability, T/C",[26],51.8%
same,"viability, T/C",[27],43.5%
same,"viability, T/C",[28],33.7%
same,"viability, T/C",[29],32.4%
same,"viability, T/C",[30],22.2%
same,"viability, T/C",[31],59.5%
same,"viability, T/C",[32],49.5%
same,"viability, T/C",[33],33.9%
same,"viability, T/C",[34],30.5%
same,"viability, T/C",[35],30.3%
same,"viability, T/C",[36],18.5%
